≈ marks a conversion by molar mass, not a printed value.
Assays:
[1] = test system: Escherichia coli; assay: Inhibition of protein synthesis in Escherichia coli assessed as incorporation of [3H]amino acid at 128 ug/mL by LKB Betaplate scintillation counter relative to control; format: functional; design: scale not given: the % may be the effect or the level left
[2] = test system: Staphylococcus aureus; assay: Antimicrobial activity against methicillin-sensitive Staphylococcus aureus 375 after 18 hrs by microbroth dilution method; format: functional; conditions: Staphylococcus aureus, 375, 18 h
[3] = test system: Escherichia coli; assay: Antimicrobial activity against Escherichia coli ATCC 25922 after 18 hrs by microbroth dilution method; format: functional; conditions: ATCC 25922, 18 h
[4] = test system: Escherichia coli; assay: Inhibition of protein synthesis in Escherichia coli assessed as incorporation of [3H]amino acid at 16 ug/mL by LKB Betaplate scintillation counter relative to control; format: functional; design: scale not given: the % may be the effect or the level left
[5] = test system: Staphylococcus aureus; assay: Antimicrobial activity against methicillin-resistant Staphylococcus aureus 310 after 18 hrs by microbroth dilution method; format: functional; conditions: Staphylococcus aureus, 310, 18 h
[6] = test system: Escherichia coli; assay: Antimicrobial activity against Escherichia coli 389 after 18 hrs by microbroth dilution method; format: functional; conditions: Escherichia coli, 389, 18 h
[7] = test system: Pseudomonas aeruginosa; assay: Antimicrobial activity against Pseudomonas aeruginosa 339 after 18 hrs by microbroth dilution method; format: functional; conditions: Pseudomonas aeruginosa, 339, 18 h
[8] = test system: Escherichia coli; assay: Inhibition of protein synthesis in Escherichia coli assessed as incorporation of [3H]amino acid at 64 ug/mL by LKB Betaplate scintillation counter relative to control; format: functional; design: scale not given: the % may be the effect or the level left
[9] = test system: Escherichia coli; assay: Inhibition of RNA synthesis in Escherichia coli assessed as incorporation of [3H]uridine at 8 ug/mL by LKB Betaplate scintillation counter relative to control; format: functional; design: scale not given: the % may be the effect or the level left
[10] = test system: Escherichia coli; assay: Inhibition of DNA synthesis in Escherichia coli assessed as incorporation of [3H]thymidine at 128 ug/mL by LKB Betaplate scintillation counter relative to control; format: functional; design: scale not given: the % may be the effect or the level left
[11] = test system: Escherichia coli; assay: Inhibition of DNA synthesis in Escherichia coli assessed as incorporation of [3H]thymidine at 32 ug/mL by LKB Betaplate scintillation counter relative to control; format: functional; design: scale not given: the % may be the effect or the level left
[12] = test system: Escherichia coli; assay: Inhibition of DNA synthesis in Escherichia coli assessed as incorporation of [3H]thymidine at 16 ug/mL by LKB Betaplate scintillation counter relative to control; format: functional; design: scale not given: the % may be the effect or the level left
[13] = test system: Klebsiella pneumoniae; assay: Antimicrobial activity against Klebsiella pneumoniae 425 after 18 hrs by microbroth dilution method; format: functional; conditions: Klebsiella pneumoniae, 425, 18 h
[14] = test system: Candida albicans; assay: Antimicrobial activity against Candida albicans 54 after 18 hrs by microbroth dilution method; format: functional; conditions: Candida albicans, 54, 18 h
[15] = test system: Staphylococcus aureus; assay: Antimicrobial activity against Staphylococcus aureus ATCC 25923 after 18 hrs by microbroth dilution method; format: functional; conditions: ATCC 25923, 18 h
[16] = test system: Enterococcus faecium; assay: Antimicrobial activity against vancomycin-resistant Enterococcus faecium 379 after 18 hrs by microbroth dilution method; format: functional; conditions: Enterococcus faecium, 379, 18 h
[17] = test system: Escherichia coli; assay: Inhibition of RNA synthesis in Escherichia coli assessed as incorporation of [3H]uridine at 32 ug/mL by LKB Betaplate scintillation counter relative to control; format: functional; design: scale not given: the % may be the effect or the level left
[18] = test system: Escherichia coli; assay: Inhibition of RNA synthesis in Escherichia coli assessed as incorporation of [3H]uridine at 64 ug/mL by LKB Betaplate scintillation counter relative to control; format: functional; design: scale not given: the % may be the effect or the level left
[19] = test system: Enterococcus faecium; assay: Antimicrobial activity against Enterococcus faecium 436 after 18 hrs by microbroth dilution method; format: functional; conditions: Enterococcus faecium, 436, 18 h
[20] = test system: Escherichia coli; assay: Inhibition of RNA synthesis in Escherichia coli assessed as incorporation of [3H]uridine at 128 ug/mL by LKB Betaplate scintillation counter relative to control; format: functional; design: scale not given: the % may be the effect or the level left
[21] = test system: Escherichia coli; assay: Inhibition of RNA synthesis in Escherichia coli assessed as incorporation of [3H]uridine at 16 ug/mL by LKB Betaplate scintillation counter relative to control; format: functional; design: scale not given: the % may be the effect or the level left
[22] = test system: Bacillus subtilis; assay: Antimicrobial activity against Bacillus subtilis 327 after 18 hrs by microbroth dilution method; format: functional; conditions: Bacillus subtilis, 327, 18 h
[23] = test system: Escherichia coli; assay: Inhibition of protein synthesis in Escherichia coli assessed as incorporation of [3H]amino acid at 8 ug/mL by LKB Betaplate scintillation counter relative to control; format: functional; design: scale not given: the % may be the effect or the level left
[24] = test system: Escherichia coli; assay: Inhibition of protein synthesis in Escherichia coli assessed as incorporation of [3H]amino acid at 32 ug/mL by LKB Betaplate scintillation counter relative to control; format: functional; design: scale not given: the % may be the effect or the level left
[25] = test system: Escherichia coli; assay: Inhibition of DNA synthesis in Escherichia coli assessed as incorporation of [3H]thymidine at 8 ug/mL by LKB Betaplate scintillation counter relative to control; format: functional; design: scale not given: the % may be the effect or the level left
[26] = test system: Escherichia coli; assay: Antimicrobial activity against Escherichia coli 442 after 18 hrs by microbroth dilution method; format: functional; conditions: Escherichia coli, 442, 18 h
[27] = test system: Escherichia coli; assay: Inhibition of DNA synthesis in Escherichia coli assessed as incorporation of [3H]thymidine at 64 ug/mL by LKB Betaplate scintillation counter relative to control; format: functional; design: scale not given: the % may be the effect or the level left
[28] = test system: Escherichia coli; assay: Inhibition of DNA synthesis in Escherichia coli assessed as incorporation of [3H]thymidine at 0.25 ug/mL by LKB Betaplate scintillation counter relative to control; format: functional; design: scale not given: the % may be the effect or the level left
[29] = test system: Escherichia coli; assay: Inhibition of RNA synthesis in Escherichia coli assessed as incorporation of [3H]uridine at 0.25 ug/mL by LKB Betaplate scintillation counter relative to control; format: functional; design: scale not given: the % may be the effect or the level left
[30] = test system: Escherichia coli; assay: Inhibition of protein synthesis in Escherichia coli assessed as incorporation of [3H]amino acid at 0.25 ug/mL by LKB Betaplate scintillation counter relative to control; format: functional; design: scale not given: the % may be the effect or the level left
[31] = test system: Staphylococcus aureus; assay: Antimicrobial activity against Staphylococcus aureus after 18 hrs by micro-broth dilution method; format: functional
[32] = test system: Staphylococcus aureus; assay: Antimicrobial activity against Staphylococcus aureus infected in CD1 mouse administered subcutaneously after 30 mins infection measured after 7 days; format: functional; conditions: sc
[33] = test system: Staphylococcus aureus; assay: Antimicrobial activity against Staphylococcus aureus infected in CD1 mouse administered single oral dose after 7 days; format: functional; conditions: 168 h
[34] = Ratio of LD50 for CD1 mouse to ED50 for Staphylococcus aureus infected in single subcutaneously dosed CD1 moue
[35] = test system: Escherichia coli; assay: Inhibition of DNA synthesis in Escherichia coli assessed as incorporation of [3H]thymidine at 25 ug/mL by LKB Betaplate scintillation counter relative to control; format: functional; design: scale not given: the % may be the effect or the level left
[36] = test system: Escherichia coli; assay: Inhibition of RNA synthesis in Escherichia coli assessed as incorporation of [3H]uridine at 25 ug/mL by LKB Betaplate scintillation counter relative to control; format: functional; design: scale not given: the % may be the effect or the level left
[37] = test system: Escherichia coli; assay: Inhibition of protein synthesis in Escherichia coli assessed as incorporation of [3H]amino acid at 25 ug/mL by LKB Betaplate scintillation counter relative to control; format: functional; design: scale not given: the % may be the effect or the level left

CC(C)=CCC[C@@H](C)c1ccc(O)c(C)c1
Activity [1]: 25.34%
MIC [2]: 16 µg/mL (≈ 73.3 µM)
MIC [3]: > 128 µg/mL
Activity [4]: 52.28%
MIC [5]: 32 µg/mL (≈ 147 µM)
MIC [6]: 32 µg/mL (≈ 147 µM)
MIC [7]: > 128 µg/mL
Activity [8]: 39.06%
Activity [9]: 66.73%
Activity [10]: 30.71%
Activity [11]: 48.24%
Activity [12]: 63.06%
MIC [13]: 32 µg/mL (≈ 147 µM)
MIC [14]: 128 µg/mL (≈ 586 µM)
MIC [15]: 16 µg/mL (≈ 73.3 µM)
MIC [16]: 16 µg/mL (≈ 73.3 µM)
Activity [17]: 50.02%
Activity [18]: 39.08%
MIC [19]: 16 µg/mL (≈ 73.3 µM)
Activity [20]: 34.04%
Activity [21]: 60.35%
MIC [22]: 16 µg/mL (≈ 73.3 µM)
Activity [23]: 68%
Activity [24]: 44.2%
Activity [25]: 75.57%
MIC [26]: > 128 µg/mL
Activity [27]: 37.82%

CO[C@H]1/C=C/O[C@@]2(C)Oc3c(C)c(O)c4c(O)c(c(/C=N/N5CCN(C)CC5)c(O)c4c3C2=O)NC(=O)/C(C)=C\C=C\[C@H](C)[C@H](O)[C@@H](C)[C@@H](O)[C@@H](C)[C@H](OC(C)=O)[C@@H]1C [RIFAMPIN]
Activity [28]: 89.56%
Activity [29]: 1.17%
Activity [30]: 27.82%

C[C@@]12C[C@@]34CC[C@H]5[C@@](C)(CCC[C@]5(C)C(=O)O)[C@@H]3C[C@H]1[C@H]2C4
MIC [31]: 128 µg/mL (≈ 423 µM)

CC(C)=CCC[C@@H](C)c1ccc(C)c(O)c1 [XANTHORRIZOL]
Activity [1]: 17.12%
ED50 [32]: > 32 mg/kg
MIC [2]: 16 µg/mL (≈ 73.3 µM)
MIC [3]: > 128 µg/mL
Activity [4]: 96.92%
MIC [5]: 32 µg/mL (≈ 147 µM)
MIC [6]: 32 µg/mL (≈ 147 µM)
MIC [7]: > 128 µg/mL
Activity [8]: 23.39%
Activity [9]: 96.87%
Activity [10]: 1.52%
Activity [11]: 35.75%
Activity [12]: 99.98%
MIC [13]: 32 µg/mL (≈ 147 µM)
MIC [14]: 128 µg/mL (≈ 586 µM)
MIC [15]: 16 µg/mL (≈ 73.3 µM)
MIC [16]: 16 µg/mL (≈ 73.3 µM)
Activity [17]: 48.56%
Activity [18]: 8.72%
MIC [19]: 16 µg/mL (≈ 73.3 µM)
Activity [20]: 1.91%
Activity [21]: 91.13%
MIC [22]: 16 µg/mL (≈ 73.3 µM)
Activity [23]: 102.1%
Activity [24]: 33.57%
Activity [25]: 95.33%
MIC [26]: > 128 µg/mL
Activity [27]: 7.03%

CN[C@H](CC(C)C)C(=O)N[C@H]1C(=O)N[C@@H](CC(N)=O)C(=O)N[C@H]2C(=O)N[C@H]3C(=O)N[C@H](C(=O)N[C@H](C(=O)O)c4cc(O)cc(O)c4-c4cc3ccc4O)[C@H](O)c3ccc(c(Cl)c3)Oc3cc2cc(c3O[C@@H]2O[C@H](CO)[C@@H](O)[C@H](O)[C@H]2O[C@H]2C[C@](C)(N)[C@H](O)[C@H](C)O2)Oc2ccc(cc2Cl)[C@H]1O [VANCOMYCIN]
ED50 [32]: 1 mg/kg
ED50 [33]: 230 mg/kg
Ratio LD50/ED50 [34]: >1000

CC1(C)S[C@@H]2[C@H](NC(=O)Cc3ccccc3)C(=O)N2[C@H]1C(=O)O [PENICILLIN G]
MIC [2]: 0.06 µg/mL (≈ 0.179 µM)
MIC [3]: 128 µg/mL (≈ 383 µM)
MIC [5]: 64 µg/mL (≈ 191 µM)
MIC [6]: 2 µg/mL (≈ 5.98 µM)
MIC [7]: > 128 µg/mL
MIC [13]: 128 µg/mL (≈ 383 µM)
MIC [14]: > 128 µg/mL
MIC [15]: 0.06 µg/mL (≈ 0.179 µM)
MIC [16]: 32 µg/mL (≈ 95.7 µM)
MIC [19]: 32 µg/mL (≈ 95.7 µM)
MIC [22]: 32 µg/mL (≈ 95.7 µM)

O=C(N[C@H](CO)[C@H](O)c1ccc([N+](=O)[O-])cc1)C(Cl)Cl [CHLORAMPHENICOL]
Activity [35]: 82.98%
Activity [36]: 85.76%
Activity [37]: 18.96%

From ChEMBL document CHEMBL1155722, “Biological and mechanistic activities of xanthorrizol and 4-(1',5'-dimethylhex-4'-enyl)-2-methylphenol isolated from Iostephane heterophylla” (2001)
